The term IC50 denotes the concentration at which inhibition is half-maximal.

Data on 8 compounds can be found in PMC11443485, “Euphane and Tirucallane Triterpenes with Trypanocidal Activity from Euphorbia desmondii” (Journal of Natural Products, 2024).

Like-named read-outs stand apart in the source and are kept apart here.

Assay [1] deals with T. cruzi epimastigotes (Y strain). As to the kind of experiment: Trypanocidal activity against T. cruzi epimastigotes, Cell Proliferation Kit II (XTT) assay. Format: cell-based, Trypanosoma cruzi. To be noted: for Selectivity Index: T. cruzi epimastigotes over the host cell (RAW264.7 macrophages); for IC50: epimastigotes, Y strain, 72 h at 28 °C, XTT, read-out: T. cruzi epimastigote WT-Y IC50; for Effect on T. cruzi epimastigote proliferation (Figure S130): mean ± SD of three independent experiments each in triplicates; for Increase of the proliferation of the epimastigotes: at the lower micromolar concentrations, trypanocidal at higher concentrations. On the procedure:
Epimastigotes of T. cruzi [Y strain (ATCC 50832)] were maintained in weekly passages in a liver infusion tryptose (LIT) medium supplemented with 10% heat-inactivated fetal bovine serum (hiFBS) at 28 °C, as described previously.[33] The epimastigote cultures in the logarithmic-growth phase (1–5 × 10^7 parasites/mL) were used for the experiments unless stated otherwise. The green fluorescent protein (GFP)-overexpressing epimastigotes were generated by transfection using pTREX-n-eGFP, a gift from Rick Tarleton (Addgene plasmid # 62544; http://n2t.net/addgene:62544;RRID:Addgene_62544), as described previously. The GFP-expressing epimastigotes were cultured in LIT medium supplemented with 10% hiFBS and 500 μg/mL G418.
(§1) To assess the selectivities of the isolated compounds, their trypanocidal activities against the epimastigotes were assessed by the Cell Proliferation Kit II (XTT) assay, as previously described.[11] Briefly, 1.5 × 10^5 epimastigotes were seeded per well in 96-well plates. The compounds were added at a single concentration, 10 μM (for the initial screening experiments) or six concentrations ranging from 10–0.3 μM for 72 h at 28 °C. In all the experiments, benznidazole was used as the positive control. Following the incubation period, the plates were examined under a microscope for sterility and growth of controls. To the plates, 50 μL of XTT and PMS (Phenazine methosulfate, Sigma-Aldrich, MO, USA) solution (XTT and PMS at 0.5 and 0.025 mg/mL, respectively) was added, and the plates were then incubated at 28 °C for 2.5 h. The parasites were fixed by the addition of 50 μL of MeOH for 15 min before the absorbance was measured at 490 nm on a Tecan plate reader. Results were expressed as percentage cell viability relative to vehicle control or IC50 values calculated by GraphPad Prism version 8.0. All assessments were performed in triplicate in at least two independent experiments.
(Tetrazolium assays rely on reduction of a dye to a coloured formazan, in cell work by metabolically active cells.)

Assay [2] relates to RAW264.7 macrophages. Kind of assay: Cytotoxicity in RAW264.7 macrophages (mammalian host cells). Format: cell-based. To be noted: host cell cytotoxicity, read-out: RAW 264.7 IC50. As for the experimental part: [The procedure below names another organism; the source lists this organism under the same test.] To biologically characterize the isolated triterpenoids for their trypanocidal activities, their cytotoxicities in RAW264.7 macrophages (mammalian host cells) and T. cruzi epimastigotes were analyzed.
as §1, with “The compounds were added at a single concentration, 10 μM (for the initial screening experiments) or six concentrations ranging from 10–0.3 μM for 72 h at 28 °C.” left out

In assay [3] the test system is T. cruzi amastigotes in infected RAW264.7 cells. Kind of assay: Amastigote replication in host cells: FACS quantitation of GFP parasites released from infected RAW264.7 cells. Format: cell-based, Trypanosoma cruzi. The settings on record: GFPY parasite release from infected RAW264.7 cells, FACS after 6 days, mean ± SD of three independent experiments. As for the experimental part:
Figure 3 Inhibition activity of 1 against amastigote replication in the host cells. […] (A) Representative brightfield microscopic image of CCL39 fibroblasts infected with Trypanosoma cruzi with amastigotes (arrow). […] (C) Inhibition curves of compound 1 and the positive control, benznidazole, of the GFPY parasite release from the infected RAW264.7 cells were measured by fluorescence-activated cell sorting (FACS) after 6 days.
Fluorescence-activated cell sorting (FACS)-based quantitation of released parasites from infected RAW264.7 cells: The host cells were seeded in 24-well plates at densities of 40,000 and 10,000 cells/mL. The cells were allowed to adhere for 24 h, after which they were infected with trypomastigotes that were harvested by the swim-out procedure described above at a multiplicity of 10. On the next day, the noninternalized trypomastigotes were washed off, and fresh RPMI with 2% fetal bovine serum was added to the wells along with the test substance. In all of the experiments, the screening was performed in triplicate, including tests with DMSO and benznidazole controls. The released parasites were fixed using 4% paraformaldehyde in phosphate-buffered saline for 1 h, after which the samples were analyzed by FACS (BD Biosciences), as described previously.[11]

[4] abbreviates: Trypanosoma cruzi, RAW264.7, 144 h.

Regarding `CC(=O)CCC[C@H](C)[C@@H]1CC[C@]2(C)C3=C(CC[C@@]12C)[C@@]1(C)CC[C@H](O)C(C)(C)[C@@H]1CC3=O` [Compound 3, Desmondiin D], in assay [1], the “Selectivity Index” value is listed as 7.8. The IC50 in assay [1] (Trypanosoma cruzi) was determined as 4 µM; in assay [2] (Mus musculus), 31 µM.
As to `C/C(C=O)=C\CC[C@H](C)[C@@H]1CC[C@]2(C)C3=C([C@@H](O)C[C@@]12C)[C@@]1(C)CC[C@H](O)C(C)(C)[C@@H]1CC3=O` [Compound 7, Desmondiin H], the “Selectivity Index” value in assay [1] worked out at 6.4. The half-inhibitory concentration (IC50) in assay [1] (Trypanosoma cruzi) turned out to be 3.7 µM; in assay [2] (Mus musculus) it was 23.5 µM.
For `CC(C)C(=O)CC[C@@H](C)[C@@H]1CC[C@]2(C)C3=C(CC[C@@]12C)[C@@]1(C)CC[C@H](O)C(C)(C)[C@@H]1CC3=O` [Compound 2, eupha-8-ene-3β-ol-7,24-dione], in assay [1], the “Selectivity Index” value was 6.3 and the “Effect on T. cruzi epimastigote proliferation (Figure S130)” value (from here on “Effect”) is on record as “significant increase”. The IC50 in assay [1] (Trypanosoma cruzi) is 5 µM. For the same compound, the IC50 in assay [2] (Mus musculus) came to 31.5 µM.
Consider `O=C(Cn1ccnc1[N+](=O)[O-])NCc1ccccc1` [benznidazole, reference compound], for which the results for the IC50 in assay [3] and in assay [3] (setting [4]) were 3200 ± 500 nM and 3600 ± 400 nM, respectively.
Consider `C[C@H](C/C=C/C(C)(C)OO)[C@@H]1CC[C@]2(C)C3=C(CC[C@@]12C)[C@@]1(C)CC[C@H](O)C(C)(C)[C@@H]1CC3=O` [Compound 1, (23E)-25-hydroperoxyeupha-8,23-diene-3β-ol-7-one], for which the “Selectivity Index” value in assay [1] stood at 8.5. The half-inhibitory concentration (IC50) in assay [1] (Trypanosoma cruzi) amounted to 4.5 µM; in assay [2] (Mus musculus) it was 38.1 µM; in assay [3] (listed as desmondiin A) it was 2400 ± 300 nM; in assay [3] (setting [4]) it was 2500 ± 300 nM.
With “3β-hydroxy-27-nor-tirucalla-8-en-7,11,25-trione [Compound 12]”, in assay [1], the “Selectivity Index” value was found to be 6.6, the “Increase of the proliferation of the epimastigotes” value (shortened to “Increase”) is 15–30%, the IC50 was 3.7 µM and the “Effect” value was “significant increase”. For the same compound, the 50% inhibitory concentration (IC50) in assay [2] was 24.4 µM.
Consider `C[C@@H](C/C=C/C(C)(C)OO)[C@@H]1CC[C@]2(C)C3=C(C(OO)C[C@@]12C)[C@@]1(C)CC[C@H](O)C(C)(C)[C@@H]1CC3=O` (stereo partly drawn) [Compound 5, (23E)-11,25-dihydroperoxytirucalla-8,23-dien-3β-ol-7-one], for which, in assay [1], the “Selectivity Index” value was 5.4, the “Increase” value is given as 15–30% and the “Effect” value is “significant increase”. Moreover, the IC50 in assay [1] (Trypanosoma cruzi) was 3.4 µM. For the same compound, in assay [2] (Mus musculus), the half-maximal inhibitory concentration (IC50) was 18.4 µM.
As to `CC(C)=CCC[C@@H](C)[C@@H]1CC[C@]2(C)C3=C(C(=O)C[C@@]12C)[C@@]1(C)CC[C@H](O)C(C)(C)[C@@H]1C[C@H]3O` [Compound 8, eupha-8,24-dien-3β,7α-diol-11-one], in assay [1], the “Selectivity Index” value worked out at 5.8, the “Increase” value was 15–30% and the “Effect” value is listed as “significant increase”. Further, the half-maximal inhibitory concentration (IC50) in assay [1] (Trypanosoma cruzi) amounted to 4.9 µM. Also, the concentration for half-maximal inhibition (IC50) in assay [2] (Mus musculus) was 28.4 µM.
